Experimental data taken from patent US20090118318A1, “Novel Diazaspiroalkanes and Their Use for Treatment of CCR8 Mediated Diseases” (priority 2005, published 2009).

Columns and labels:
[1] = Human Microsomal Stability Assay; type: in vitro ADME; conditions: human microsomes (Xenotech); human microsomes 1 mg protein/mL, compound 2.5 μM, NADPH 2 mM, pH 7.4, 37° C.; read-out: Intrinsic clearance
Protocol: Human Microsomal Stability Assay
Samples at four time-points (0, 5, 15 and 30 minutes) are withdrawn and the enzymatic reaction is terminated by protein precipitation with 1% acetic acid in acetonitrile. The incubations are performed on a thermostated plate (37° C.) placed on a Tecan worktable, and all liquid handling was performed robotically. After centrifugation of the samples, the supernatants are pooled in sets of four before they are analysed by liquid chromatography with tandem mass spectrometry detection (LC/MS/MS) using multiple reaction monitoring (MRM). Data are presented as intrinsic Clearance (CLint), μl/min/mg protein, calculated from the initial linear part of the compound disappearance curve.

[2] = target: T1, human recombinant chemokine CCR8 receptor (Homo sapiens, UniProt P51685); test: CCL1 SPA Binding Assay; conditions: inhibition of 125I CCL1 binding to CCR8 membranes from transfected CHO-K1 cells
T1 construct: purchased Euroscreen ES-136-M; host or cells: CHO-K1 cells (transfected), membrane preparation
T1 sequence (P51685 whole entry): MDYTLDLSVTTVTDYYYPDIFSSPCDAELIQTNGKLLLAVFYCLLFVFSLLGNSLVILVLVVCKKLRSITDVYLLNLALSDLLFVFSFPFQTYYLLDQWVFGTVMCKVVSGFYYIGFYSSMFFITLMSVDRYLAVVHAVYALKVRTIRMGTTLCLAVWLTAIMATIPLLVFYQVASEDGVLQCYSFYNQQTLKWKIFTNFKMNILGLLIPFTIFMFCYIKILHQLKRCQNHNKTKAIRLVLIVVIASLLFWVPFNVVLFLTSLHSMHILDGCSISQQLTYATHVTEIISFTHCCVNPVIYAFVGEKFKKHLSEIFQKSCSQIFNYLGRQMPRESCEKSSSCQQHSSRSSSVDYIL
Protocol: Membranes from CHO-K1 cells transfected with human recombinant chemokine CCR8 receptor (ES-136-M) were purchased from Euroscreen. Membrane preparations are stored at −70C in 7.5 mM Tris-Cl pH 7.5, 12.5 mM MgCl2, 0.3 mM EDTA, 1 mM EGTA, 250 mM sucrose until used.
The CCR8 membranes ([…]) were preincubated with Wheat Germ Agglutinin SPA beads (4.05 mg/ml) in assay buffer (50 mM HEPES, 1 mM CaCl2x2H2O, 5 mM MgCl2x6H2O, 75 mM NaCl, 0.1% BSA) at pH=7.4 for 2 hours on ice. A […] dose-response curve (final concentrations 50 μM, 16.7 μM, 5.6 μM, 1.9 μM, 0.62 μM, 0.21 μM, 0.069 μM, 0.023 μM) was prepared by diluting compounds by serial dilution 1:3 in DMSO. In the screening plate (Polystyrene NBS plates, Costar Corning 3604) 1 μl from the DMSO solutions of compounds was transferred into each well. 1 μl of DMSO was added to the blank control wells and 1 μl unlabeled CCL1 ([…]) was added to background control wells. 50 μl of the SPA bead-membrane mixture was added into each well. Finally, 50 μl ([…]) ^125I CCL1 (2000 Ci/mM) was added to each well. Plates were then incubated at RT with shaking (700 rpm) for 90 minutes followed by 30 minutes at RT without shaking. The plate was read in a Wallac MicroBeta counter for 2 minutes/well.

| SMILES | microsomal CLint at 2.5 μM [1] [µL/min/mg] | IC50 [2] [nM] |
| --- | --- | --- |
| COc1ccccc1Oc1ccccc1CN1CCC2(CC1)CCN(C(=O)c1ccccc1NC(=O)C(=O)O)CC2 [Example 7, {[2-({9-[2-(2-methoxyphenoxy)benzyl]-3,9-diazaspiro[5.5]undec-3-yl}carbonyl)phenyl]amino}(oxo)acetic Acid] | < 10 | 100 |
| O=C(O)Cc1cc(Cl)ccc1C(=O)N1CCC2(CCN(Cc3ccccc3Oc3ccccc3)CC2)CC1 [Example 2, (5-chloro-2-{[9-(2-phenoxybenzyl)-3,9-diazaspiro[5.5]undec-3-yl]carbonyl}phenyl)acetic Acid] | < 10 | 196 |
| COc1ccccc1Oc1ccccc1CN1CCC2(CC1)CCN(C(=O)c1ccc(Cl)cc1CC(=O)O)CC2 [Example 5, [5-chloro-2-({9-[2-(2-methoxyphenoxy)benzyl]-3,9-diazaspiro[5.5]undec-3-yl}carbonyl)phenyl]acetic Acid] | < 10 | 17 |
| COc1ccccc1Oc1cccc(CN2CCC3(CC2)CCN(C(=O)c2ccccc2OCC(=O)O)CC3)c1 [Example 11, [2-({9-[3-(2-methoxyphenoxy)benzyl]-3,9-diazaspiro[5.5]undec-3-yl}carbonyl)phenoxy]acetic Acid] | < 10 | 520 |
| COc1ccccc1Oc1ccccc1CN1CCC2(CC1)CCN(C(=O)c1cc(Cl)c(Cl)cc1C(=O)O)CC2 [Example 6, 4,5-dichloro-2-({9-[2-(2-methoxyphenoxy)benzyl]-3,9-diazaspiro[5.5]undec-3-yl}carbonyl)benzoic Acid] | 16 | 81 |
| COc1ccccc1Oc1cccc(CN2CCC3(CC2)CCN(C(=O)c2ccccc2C(=O)O)CC3)c1 [Example 9, 2-({9-[3-(2-methoxyphenoxy)benzyl]-3,9-diazaspiro[5.5]undec-3-yl}carbonyl)benzoic Acid] | < 10 | 71 |
| O=C(O)Cc1ccccc1C(=O)N1CCC2(CCN(Cc3cccc(Oc4ccccc4)c3)CC2)CC1 [Example 3, (2-{[9-(3-phenoxybenzyl)-3,9-diazaspiro[5.5]undec-3-yl]carbonyl}phenyl)acetic Acid] | < 10 | 144 |
| COc1ccccc1Oc1cccc(CN2CCC3(CC2)CCN(C(=O)c2ccc(Cl)cc2)CC3)c1 [Y, 3-(4-chlorobenzoyl)-9-[3-(2-methoxyphenoxy)benzyl]-3,9-diazaspiro[5.5]undecane, reference compound] | > 200 |  |
| CC(C)COc1ccccc1CN1CCC2(CC1)CCN(C(=O)c1ccccc1CC(=O)O)CC2 [A, (2-{[9-(2-isobutoxybenzyl)-3,9-diazaspiro[5.5]undec-3-yl]carbonyl}phenyl)acetic Acid, reference compound] |  | 1060 |
| O=C(O)Cc1ccccc1C(=O)N1CCC2(CCN(Cc3ccccc3Oc3ccccc3)CC2)CC1 [Example 1, (2-{[9-(2-phenoxybenzyl)-3,9-diazaspiro[5.5]undec-3-yl]carbonyl}phenyl)acetic Acid] | < 10 | 643 |
| COc1ccccc1Oc1cccc(CN2CCC3(CC2)CCN(C(=O)c2ccccc2CC(=O)O)CC3)c1 [Example 8, [2-({9-[3-(2-methoxyphenoxy)benzyl]-3,9-diazaspiro[5.5]undec-3-yl}carbonyl)phenyl]acetic Acid] | < 10 | 42 |
| CC(C)COc1ccccc1CN1CCC2(CC1)CCN(C(=O)c1ccccc1C(=O)O)CC2 [B, 2-{[9-(2-isobutoxybenzyl)-3,9-diazaspiro[5.5]undec-3-yl]carbonyl}benzoic Acid, reference compound] |  | 1370 |
| COc1ccccc1Oc1ccccc1CN1CCC2(CC1)CCN(C(=O)c1ccccc1CC(=O)O)CC2 [Example 4, [2-({9-[2-(2-methoxyphenoxy)benzyl]-3,9-diazaspiro[5.5]undec-3-yl}carbonyl)phenyl]acetic Acid] | < 10 | 58 |
| COc1ccccc1Oc1cccc(CN2CCC3(CC2)CCN(C(=O)c2ccc(OCC(=O)O)cc2)CC3)c1 [Example 10, [4-({9-[3-(2-methoxyphenoxy)benzyl]-3,9-diazaspiro[5.5]undec-3-yl}carbonyl)phenoxy]acetic Acid] | < 10 | 405 |
